Tests used:
[1] = tested on: Malassezia furfur CBS 7019; assay: Formulation bio-efficacy (Malassezia kill) by Vitro-Skin assay; type: cell-based; settings: FIG. 5
Protocol: Assessment of Formulation Bio-Efficacy (Malassezia Kill) by Vitro-Skin™ Assay Formulation bio-efficacy was assessed using an in vitro substantivity assay which evaluates the effectiveness of actives in shampoo and conditioners using Malassezia furfur CBS 7019 as the organism. Malassezia furfur for the inoculation of artificial skin were initially grown in Pityrosporum Broth, and added to molten agar slurry immediately prior to the inoculation of the Vitro-Skin™ at a final concentration of 1-3×10^5 cells/ml. Vitro-Skin™ was placed onto a Modified Dixon Agar Plate (1 skin per plate), and 0.5 ml of agar slurry inoculum was gently pipetted onto the rough surface of the skin, in a film 1-2 mm deep. After the agar had gelled, the plates were placed in an incubator (32° C.) for 24 h. Following incubation, each piece of Vitro-Skin™ was carefully folded in half (inoculum on the inside) using sterile forceps, and placed a vial containing 10 ml of Butterfield's phosphate buffer (pH 7.2), 0.1% Triton X-100, 0.5% Tween and 0.08% lecithin. The vial was vortexed for 1 min (high setting), and 1 ml of this sample (10°) then added to 9 ml of 0.1% peptone (in water: 10^−1 sample). This sample was then serially diluted to 10^−5 in 0.1% peptone. For immediate controls, 0.1 ml of 10^0-10^−4 dilutions were plated onto Modified Dixon Agar Plates. For 24 h incubated samples, 0.1 ml of 10^0-10^−5 dilutions were plated onto Modified Dixon Agar Plates, and incubated at 32° C. for 4-5 days. The number of colonies on each plate were then counted, and final numbers determined by multiplying by the appropriate dilution.

[2] = cited from earlier work
[3] = 0.2% active alone in shampoo formula 1

| Structure (SMILES) | microkill (Malassezia furfur kill) [1, 3] | microkill (Malassezia furfur kill) ([1]; 0.1% active alone in shampoo formula 1) | solubility in ethanol ([2]; ethanol, ambient temperature) | solubility in water ([2]; water) |
| --- | --- | --- | --- | --- |
| CC1CCC(C(C)C)C(O)C1 (stereo not drawn) [menthol] | relatively ineffective | – | – | – |
| CC(=O)N1CCN(c2ccc(OC[C@@H]3CO[C@@](Cn4ccnc4)(c4ccc(Cl)cc4Cl)O3)cc2)CC1 [ketoconazole, 1-[4-[4-[[(2S,4R)-2-(2,4-dichlorophenyl)-2-(imidazol-1-ylmethyl)-1,3-dioxolan-4-yl]methoxy]phenyl]piperazin-1-yl]ethanone] | highly effective | relatively ineffective | soluble | virtually insoluble |
| O=C(O)c1ccccc1O [salicylic acid] | relatively ineffective | – | – | – |

— US8501743B2, “Personal care composition” (Conopco, Inc., priority 2007, dated 2013)
